Test results: publication PMC8467576, “Novel Ubiquitin Specific Protease-13 Inhibitors Alleviate Neurodegenerative Pathology” (Metabolites, 2021)

Key:
[1] = system: SH-SY5Y human neuroblastoma cells; assay: LDH and MTT cell viability assays; format: cell-based; conditions: 5 h; for concentration near and above which cell viability decreased: compared to DMSO or untreated controls; for cell toxicity: range of concentrations studied (0.001 µM to 1 mM)
Experimental: BK50118-B and BK50118-C (Figure 2C,D) decreased cell viability near and above 100 μM compared to DMSO or untreated controls. CL3-499 (Figure 2G) decreased cell viability near and above 1 mM compared to DMSO or untreated controls.
(§1) SH-SY5Y cells were transiently transfected for 24 h with human wild-type α-synuclein using Fugene HD transfection reagent (Promega, E2311, Madison, WI, USA) according to manufacturer’s protocol. Cells were treated with 1 mM, 0.1 mM, 0.01 mM, 1 µM, 0.1 µM, 0.01 µM and 0.001 µM of each novel compounds (BK50118-A, BK50118-B, BK50118-C, CL3-499, CL3-512 and CL3-514) dissolved in DMSO for 5 h. Cells were then harvested on ice by removing culture medium and adding 0.2 mL 1x sodium-tris, EDTA, NP-40 (STEN) buffer (50 mM Tris (pH 7.6), 150 mM NaCl, 2 mM EDTA, 0.2 % NP-40, 0.2 % with Halt protease and phosphatase inhibitor solution (ThermoFisher, 78446). Cells were detached with a cell scraper and collected into centrifuge tubes and incubated at 4 °C for 30 min with agitation. Samples were stored at −80 °C and used for ELISA analyses. For cell viability assay, SHSY-5Y cells stably expressing human wild-type alpha-synuclein were treated with 1 mM, 0.1 mM, 0.01 mM, 1 µM, 0.1 µM, 0.01 µM and 0.001 µM of each novel compound (BK50118-A, BK50118-B, BK50118-C, CL3-499, CL3-512 and CL3-514) dissolved in DMSO for 5 h. Cell viability was determined via lactate dehydrogenase assay on culture media (Thermofisher, 88954) and MTT assay on plated cells (Thermofisher, V13154).

USP13 [2] = target: T1, USP13 (Homo sapiens, UniProt Q92995); assay: USP13 activity via functional ELISA in alpha-synuclein transfected SH-SY5Y cells; format: cell-based; conditions: SH-SY5Y cells transfected with human alpha-synuclein, 5 h, read-out: Estimated IC50 to USP13
T1 construct: ELISA for USP13 (MyBioSource, Cat # MBS9335287, San Diego, CA, USA); endogenous in cells; host or cells: human SH-SY5Y neuroblastoma cells transfected with human wild-type alpha-synuclein
T1 sequence (Q92995 1-863): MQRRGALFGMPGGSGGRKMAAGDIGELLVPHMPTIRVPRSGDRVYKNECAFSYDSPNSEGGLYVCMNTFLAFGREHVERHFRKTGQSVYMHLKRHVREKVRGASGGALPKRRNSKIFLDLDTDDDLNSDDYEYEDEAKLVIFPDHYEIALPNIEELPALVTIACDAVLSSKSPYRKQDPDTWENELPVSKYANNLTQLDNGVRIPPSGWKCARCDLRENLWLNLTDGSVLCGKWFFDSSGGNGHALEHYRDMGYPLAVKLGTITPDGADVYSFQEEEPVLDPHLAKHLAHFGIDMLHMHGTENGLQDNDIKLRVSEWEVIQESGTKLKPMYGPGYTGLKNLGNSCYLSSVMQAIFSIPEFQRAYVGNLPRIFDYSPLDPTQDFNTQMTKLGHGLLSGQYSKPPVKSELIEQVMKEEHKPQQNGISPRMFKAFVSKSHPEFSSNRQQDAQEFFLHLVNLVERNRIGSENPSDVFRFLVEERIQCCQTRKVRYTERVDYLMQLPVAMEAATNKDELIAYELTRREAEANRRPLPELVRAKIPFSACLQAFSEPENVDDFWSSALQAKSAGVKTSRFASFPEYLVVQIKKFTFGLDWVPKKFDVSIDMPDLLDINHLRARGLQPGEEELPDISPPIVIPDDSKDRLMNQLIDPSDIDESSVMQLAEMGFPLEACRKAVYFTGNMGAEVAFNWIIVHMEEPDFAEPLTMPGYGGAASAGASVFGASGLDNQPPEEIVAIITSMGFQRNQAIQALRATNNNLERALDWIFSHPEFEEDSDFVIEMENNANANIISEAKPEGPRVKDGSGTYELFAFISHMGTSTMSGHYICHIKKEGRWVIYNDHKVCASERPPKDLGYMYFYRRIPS
Experimental: Stably transfected human neuroblastoma SH-SY5Y cells with human wild-type alpha-synuclein were treated with 1 mM, 100 µM, 10 µM, 1 µM, 0.1 µM, 0.01 µM and 0.001 µM of each of BK50118-A, BK50118-B, BK50118-C, CL3-499, CL3-512 and CL3-514 dissolved in an equivalent volume of DMSO for 5 h. […] The other 5 compounds were also able to lower alpha-synuclein levels but with less potency (Figure 3H,I,K–M).
as §1
The ELISA for USP13 (MyBioSource, Cat # MBS9335287, San Diego, CA, USA), Human alpha-synuclein (Biolegend, Cat # 844101, San Diego, CA, USA) and specific p-Tau ser396 (Invitrogen, KHB7031, Waltham, MA, USA) were performed on cell or brain tissue extracts as described above according to manufacturers’ protocol.
All statistical analyses were performed using GraphPad Prism version 5.0 (GraphPad software, Inc, San Diego, CA, USA). Two-tailed student’s t-test was used in comparison of means of two groups. Ordinary one-way analysis of variance (ANOVA) followed by Newman–Keuls or Dunnett comparison post hoc tests were used in comparison of means of multiple groups. Asterisks denote actual p-value significances (* < 0.05, ** < 0.01, *** < 0.001 and **** < 0.0001), and N is the number of animals or the number of independent experiments (cell culture) per group. Unless otherwise indicated, data are expressed as Mean ± SD. IC50 to USP13 levels was also estimated using GraphPad Prism version 5.0 (GraphPad software, Inc, San Diego, CA, USA).

USP13 [3] = system: USP13; parameters: method as in PMID 21962518; conditions: cited from earlier work
USP10 = system: USP10; parameters: method as in PMID 21962518; conditions: cited from earlier work
[4] = parameters: method as in PMID 21962518; conditions: cited from earlier work

IC50 (USP13 [2]) [nM]	Structure (SMILES)	concentration near and above which cell viability decreased [1] [µM]	cell toxicity [1]	IC50 (USP13 [3]) [nM]	IC50 (USP10) [nM]	blood-brain barrier (BBB) penetration [4]
0.11	c1ccc(Nc2ccnc3ccsc23)cc1 [BK50118-A, N-phenylthieno[3,2-b]pyridin-7-amine]	≥ 0.1	–	–	–	–
2.13	Fc1ccc2nccc(Nc3ccccc3)c2c1 [BK50118-B, 6-fluoro-N-phenylquinolin-4-amine]	≥ 100	–	–	–	–
0.29	Fc1ccc2nccc(NCc3ccccc3)c2c1 [CL3-499, N-benzyl-6-fluoroquinolin-4-amine]	≥ 1000	–	–	–	–
0.27	COC(=O)[C@H](Cc1ccccc1)Nc1c([N+](=O)[O-])c(=O)oc2ccccc12 [CL3-512, (S)-methyl (3-nitro-2-oxo-2H-chromen-4-yl)-phenylalaninate]	–	did not show cell toxicity	–	–	–
0.61	COC(=O)[C@H](Cc1ccc(O)cc1)Nc1c([N+](=O)[O-])c(=O)oc2ccccc12 [CL3-514, (S)-methyl (3-nitro-2-oxo-2H-chromen-4-yl)-tyrosinate]	–	did not show cell toxicity	–	–	–
–	Fc1ccc(CNc2ncnc3ccc(F)cc23)cc1 [Spautin-1]	–	–	600 to 700	600 to 700	does not cross the blood–brain barrier (BBB)
